Laboratory results: patent publication US8895547B2, “Substituted phenyl-oxathiazine derivatives, method for producing them, drugs containing said compounds and the use thereof” (Sanofi, priority 2011, dated 2014)

Target: T1, human 11β-HSD1 (Homo sapiens, UniProt P28845)
T1 construct: host or cells: microsome fraction
Test: Enzymatic 11beta-HSD1 test (SPA-based detection)
Type: biochemical
Conditions: human 11β-HSD1 microsome fraction, [1,2-3H]-cortisone, NADPH, 37° C. 1 hour
Description: Enzymatic 11beta-HSD1 test:
To measure the activity of the compounds, an SPA-based detection method (Solly et al. 2005) was employed. First of all, 20 μl of the human 11β-HSD1 microsome fraction (0.2 μg of protein), prepared in 50 mM HEPES, 0.1% BSA (w/v), were applied to a plate with 384 wells. The test compounds (0.09 μl) were applied to the assay plate in 100% DMSO. The reaction was started by addition of 20 μl of [1,2-^3H]-cortisone (0.1 μCi/[…]) in assay buffer comprising 25 mM HEPES, 100 mM KCl, 5 mM NaCl, 2 mM MgCl2 and 0.25 mM NADPH. The plate was agitated at 37° C. for 1 hour. At the same time, a stop solution comprising 20 mg/ml SPA-PVT beads, 1.6 mg/ml monoclonal cortisol antibody and 0.01 mM SSR110887 (inhibitor from the Biovitrium patent) in 50 mM HEPES, 1 M NaCl and 1 M KCl was stirred at room temperature. To stop the reaction, 25 μl of the stop solution were added to each well. The plate was agitated gently at room temperature for 1 further hour and then centrifuged at 500 gav for 1 minute, in order that the SPA beads could settle out. The plate was then read in a Wallac-1450-Microbeta unit with a standard SPA program (counting time 1 min/well). The comparative compound was glycyrrhetinic acid.
Protein and radioactive substrate were dispensed with a Biomek FX unit (Beckman Coulter) for handling liquids. The test compounds were added with a Cybi-Well equipped with a 90 nl pin tool (CyBio).
Lit.: Solly S, Mundt S S, Zokian H J, Juy-Fang Ding G, Hermanowski-Vosatka A, Strulovici B and Zheng W. High-throughput screening of 11β-Hydroxysteroid dehydrogenase type 1 in scintillation proximity format. Assay Drug Dev Technol 2005; 3:377-384.

T1 sequence (P28845 whole entry): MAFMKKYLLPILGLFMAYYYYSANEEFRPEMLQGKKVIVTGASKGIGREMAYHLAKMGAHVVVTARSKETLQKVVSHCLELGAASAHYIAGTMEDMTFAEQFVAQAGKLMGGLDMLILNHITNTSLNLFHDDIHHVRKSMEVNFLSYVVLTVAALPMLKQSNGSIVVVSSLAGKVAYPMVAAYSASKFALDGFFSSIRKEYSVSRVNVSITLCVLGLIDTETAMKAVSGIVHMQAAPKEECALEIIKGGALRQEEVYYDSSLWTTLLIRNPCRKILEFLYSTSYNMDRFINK

| Compound | IC50 [nM] |
| --- | --- |
| C[C@H](NC1=NS(=O)(=O)C(C)(c2cccc(Br)c2)C(C)(C)O1)c1ccccc1F (stereo partly drawn) [Example 30, [5-(3-Bromophenyl)-5,6,6-trimethyl-4,4-dioxo-5,6-dihydro-4H-4lambda6-[1,4,3]oxathiazin-2-yl]-[(S)-1-(2-fluorophenyl)-ethyl]-amine] | 7 |
| C[C@H](NC1=NS(=O)(=O)C(c2ccccc2)C(C)(C)O1)c1ccccc1F (stereo partly drawn) [Example 31, (6,6-Dimethyl-4,4-dioxo-5-phenyl-5,6-dihydro-4H-4lambda6-[1,4,3]oxathiazin-2-yl)-[(S)-1-(2-fluoro-phenyl)-ethyl]-amine] | 10 |
| CC1(C)OC(N[C@@H](CCO)c2ccccc2)=NS(=O)(=O)C1c1cccc(O)c1 (stereo partly drawn) [Example 32, 3-[2-((S)-3-Hydroxy-1-phenyl-propylamino)-6,6-dimethyl-4,4-dioxo-5,6-dihydro-4H-4lambda6-[1,4,3]oxathiazin-5-yl]-phenol] | 24 |
| CC1(C)OC(N[C@@H](CCO)c2ccccc2)=NS(=O)(=O)C1(C)c1cccc(Br)c1 (stereo partly drawn) [Example 33, (S)-3-[5-(3-Bromophenyl)-5,6,6-trimethyl-4,4-dioxo-5,6-dihydro-4H-4lambda6-[1,4,3]oxathiazin-2-ylamino]-3-phenyl-propan-1-ol] | 8 |
| COc1cccc(C2C(C)(C)OC(N[C@@H](CCO)c3ccccc3)=NS2(=O)=O)c1 (stereo partly drawn) [Example 37, (S)-3-[5-(3-Methoxy-phenyl)-6,6-dimethyl-4,4-dioxo-5,6-dihydro-4H-4lambda6-[1,4,3]oxathiazin-2-ylamino]-3-phenyl-propan-1-ol] | 13 |
| CC1(C)OC(N[C@@H](CCO)c2ccccc2)=NS(=O)(=O)C1(C)c1ccccc1 (stereo partly drawn) [Example 42, (S)-3-Phenyl-3-(5,6,6-trimethyl-4,4-dioxo-5-phenyl-5,6-dihydro-4H-4lambda6-[1,4,3]oxathiazin-2-ylamino)-propan-1-ol] | 17 |
| CC1(C)OC(N[C@@H](CCO)c2ccccc2F)=NS(=O)(=O)C1(C)c1cccc(N2CCN(S(C)(=O)=O)CC2)c1 (stereo partly drawn) [Example 44, (S)-3-(2-Fluorophenyl)-3-{5-[3-(4-methanesulfonyl-piperazin-1-yl)-phenyl]-5,6,6-trimethyl-4,4-dioxo-5,6-dihydro-4H-4lambda6-[1,4,3]oxathiazin-2-ylamino}-propan-1-ol] | 13 |
| CC1(C)OC(N[C@@H](CCO)c2ccccc2F)=NS(=O)(=O)C1(C)c1cccc(Br)c1 (stereo partly drawn) [Example 47, (S)-3-[5-(3-Bromophenyl)-5,6,6-trimethyl-4,4-dioxo-5,6-dihydro-4H-4lambda6-[1,4,3]oxathiazin-2-ylamino]-3-(2-fluorophenyl)-propan-1-ol] | 5 |
| CC1(C)OC(N[C@@H](CCO)c2ccccc2)=NS(=O)(=O)C1(F)c1cccc(Br)c1 (stereo partly drawn) [Example 50, (S)-3-[5-(3-Bromophenyl)-5-fluoro-6,6-dimethyl-4,4-dioxo-5,6-dihydro-4H-4lambda6-[1,4,3]oxathiazin-2-ylamino]-3-phenyl-propan-1-ol] | 40 |
| Cc1ccccc1-c1ccc(C2C(C)(C)OC(N[C@@H](CCO)c3ccccc3F)=NS2(=O)=O)cc1 (stereo partly drawn) [Example 64, (S)-3-[6,6-Dimethyl-5-(2′-methyl-biphenyl-4-yl)-4,4-dioxo-5,6-dihydro-4H-4lambda6-[1,4,3]oxathiazin-2-ylamino]-3-(2-fluorophenyl)-propan-1-ol] | 12 |
| CC1(C)OC(N[C@@H](CCO)c2ccccc2F)=NS(=O)(=O)C1c1ccc(-c2ccc(F)cc2)cc1 (stereo partly drawn) [Example 65, (S)-3-[5-(4′-Fluorobiphenyl-4-yl)-6,6-dimethyl-4,4-dioxo-5,6-dihydro-4H-4lambda6-[1,4,3]oxathiazin-2-ylamino]-3-(2-fluorophenyl)-propan-1-ol] | 21 |
| COc1ccc(-c2ccc(C3C(C)(C)OC(N[C@@H](CCO)c4ccccc4F)=NS3(=O)=O)cc2)cc1 (stereo partly drawn) [Example 66, (S)-3-(2-Fluorophenyl)-3-[5-(4′-methoxy-biphenyl-4-yl)-6,6-dimethyl-4,4-dioxo-5,6-dihydro-4H-4lambda6-[1,4,3]oxathiazin-2-ylamino]-propan-1-ol] | 23 |
| CC1(C)OC(N[C@@H](CCO)c2ccccc2F)=NS(=O)(=O)C1c1cccc(-c2ccccc2)c1 (stereo partly drawn) [Example 67, (S)-3-(5-Biphenyl-3-yl-6,6-dimethyl-4,4-dioxo-5,6-dihydro-4H-4lambda6-[1,4,3]oxathiazin-2-ylamino)-3-(2-fluorophenyl)-propan-1-ol] | 15 |
| C[C@H](NC1=NS(=O)(=O)C(c2cccc(-c3ccccc3)c2)C(C)(C)O1)c1ccccc1F (stereo partly drawn) [Example 68, (5-Biphenyl-3-yl-6,6-dimethyl-4,4-dioxo-5,6-dihydro-4H-4lambda6-[1,4,3]oxathiazin-2-yl)-[(S)-1-(2-fluorophenyl)-ethyl]-amine] | 34 |

The next lines start with the values.

| IC50 [nM] | Compound |
| --- | --- |
| 18 | CC1(C)OC(N[C@@H](CCO)c2ccccc2F)=NS(=O)(=O)C1(C)c1cccc(-c2cncnc2)c1 (stereo partly drawn) [Example 46, (S)-3-(2-Fluorophenyl)-3-[5,6,6-trimethyl-4,4-dioxo-5-(3-pyrimidin-5-yl-phenyl)-5,6-dihydro-4H-4lambda6-[1,4,3]oxathiazin-2-ylamino]-propan-1-ol] |
| 15 | CC1(C)OC(N[C@@H](CCO)c2ccccc2F)=NS(=O)(=O)C1c1ccc(-c2ccccc2)cc1 (stereo partly drawn) [Example 51, (S)-3-(5-Biphenyl-4-yl-6,6-dimethyl-4,4-dioxo-5,6-dihydro-4H-4lambda6-[1,4,3]oxathiazin-2-ylamino)-3-(2-fluorophenyl)-propan-1-ol] |
| 8 | CC1(C)OC(N[C@@H](CCO)c2ccccc2F)=NS(=O)(=O)C1(C)c1ccc(-c2ccccc2)cc1 (stereo partly drawn) [Example 53, (S)-3-(5-Biphenyl-4-yl-5,6,6-trimethyl-4,4-dioxo-5,6-dihydro-4H-4lambda6-[1,4,3]oxathiazin-2-ylamino)-3-(2-fluorophenyl)-propan-1-ol] |
| 9 | CC1(C)OC(N[C@@H](CCO)c2ccccc2)=NS(=O)(=O)C1(C)c1ccc(-c2ccccc2)cc1 (stereo partly drawn) [Example 54, (S)-3-(5-Biphenyl-4-yl-5,6,6-trimethyl-4,4-dioxo-5,6-dihydro-4H-4lambda6-[1,4,3]oxathiazin-2-ylamino)-3-phenyl-propan-1-ol] |
| 28 | C[C@H](NC1=NS(=O)(=O)C(C)(c2ccc(-c3ccccc3)cc2)C(C)(C)O1)c1ccccc1F (stereo partly drawn) [Example 55, (5-Biphenyl-4-yl-5,6,6-trimethyl-4,4-dioxo-5,6-dihydro-4H-4lambda6-[1,4,3]oxathiazin-2-yl)-[(S)-1-(2-fluorophenyl)-ethyl]-amine] |
| 22 | CC1(C)OC(N[C@@H](CCO)c2ccccc2F)=NS(=O)(=O)C1(C)c1cccc(-c2ccc(F)cc2)c1 (stereo partly drawn) [Example 71, (S)-3-[5-(4′-Fluorobiphenyl-3-yl)-5,6,6-trimethyl-4,4-dioxo-5,6-dihydro-4H-4lambda6-[1,4,3]oxathiazin-2-ylamino]-3-(2-fluorophenyl)-propan-1-ol] |
| 46 | CC1(C)OC(N[C@@H](CCO)c2ccccc2)=NS(=O)(=O)C1(C)c1cccc(-c2ccccc2)c1 (stereo partly drawn) [Example 72, (S)-3-(5-Biphenyl-3-yl-5,6,6-trimethyl-4,4-dioxo-5,6-dihydro-4H-4lambda6-[1,4,3]oxathiazin-2-ylamino)-3-phenyl-propan-1-ol] |
| 28 | C[C@H](NC1=NS(=O)(=O)C(C)(c2cccc(-c3ccccc3)c2)C(C)(C)O1)c1ccccc1F (stereo partly drawn) [Example 73, (5-Biphenyl-3-yl-5,6,6-trimethyl-4,4-dioxo-5,6-dihydro-4H-4lambda6-[1,4,3]oxathiazin-2-yl)-[(S)-1-(2-fluorophenyl)-ethyl]-amine] |
